Drawing on patent US8759537B2, “3H-imidazo [4, 5-C] pyridine-6-carboxamides as anti-inflammatory agents” (Boehringer Ingelheim International GmbH, priority 2010, dated 2014), this text covers IC50 for 29 molecules.

Structures are written as SMILES. pIC50: −log10 of the molar value.

The target of assay [1] is T1, mPGES-1 (Homo sapiens (Human), UniProt O14684). The experiment in a line: mPGES-1 enzyme assay (HTRF detection of PGE2). The format is biochemical. To be noted: recombinant human mPGES-1 microsomes, PGH2 2 μM; read-out: mPGES-1 inhibitory effect in the enzyme assay, IC50. The procedure: Microsomes from Rosetta E. coli bacteria expressing recombinant human mPGES-1 can be derived as described below:
Inoculate 5 ml LB with Ampicilin (50 μg/ml) and Chloramphenicol (34 μg/ml) with bacteria from freeze culture. Incubate 8 h at 37° C. with 200 rpm. Thereafter, inoculate 500-1000 ml LB containing Amp and Chloro with the 5 ml on culture and grow to OD640 of 0.8-1.0. Chill the culture to +4° C. before induction. Induce the culture with IPTG at a final concentration of 400 μM. Express the protein at room temp 18-23° C. with 200 rpm shaking over night.
The following steps can be performed on the following day: • 1. Spin down the cells in 250 ml centrifuge flasks for 15 min at 7000 rpm (Beckmann Coulte Avanti J-E centrifuge) • 2. Dissolve the pellet from 250 ml culture in 12.5 ml homogenization buffer • 3. (15 mM Tris-HCL pH8, 1 mM EDTA pH8, […], 2.5 mM GSH, 1 Tablet Protease inhibitor per 50 ml buffer) • 4. […] Add 2.5 ml MgCl2 (100 mM) and DNase 12.5 μl (0.8 mg/ml) and incubate on ice for 30 min • 6. Spin down the bacteria debris and save the supernatant, 7000 rpm for 15 min • 7. Isolate the protein containing membranes in the supernatant by ultracentrifugation 120000×g for 2 hour at 4° C. (Sorvall T880 rotor). • 8. Discard the supernatant and dissolve the pellet in 20 mM Potassium phosphate buffer pH7.4 (KH2PO4 and K2HPO4) buffer by sonication (5×10 s, 30% of a 50 W sonifier) and aliquot the enzyme and store aliquots at −80° C.
Before each experiment is performed an aliquot of the enzyme is thawed and it can then be dissolved in 0.1 M Potassium phosphate buffer pH7.4 (KH2PO4 and K2HPO4) buffer containing 2.5 mM GSH.
The aim of this assay is to determine the affinity of a test compound for the mPGES-1 enzyme.
47 μl of recombinant human mPGES-1 (˜0.5 μg protein/well) containing microsomal suspension in a buffer containing GSH, (2.5 mmol/L L-Glutathione reduced, dissolved in 0.1 mol/L Phosphat Buffer pH 7.4) is dispensed in a 384-well plate and thereafter 1 μl of the test compound(s) is/are added and incubated for 25 minutes at room temperature. The enzyme reaction is started by the addition of 2 ul PGH2 (final conc. 2 μM) dissolved in water-free Diglyme. After 60 seconds the reaction is terminated by addition of a stop solution containing FeCl2 (10 μL 0.074 mol/l FeCl2). The samples are diluted between 1:25 in PBS (Phosphate Buffered Saline). 10 μl of the diluted samples are transferred to 384-well low volume plate. In order to quantify the amount of PGE2 that has been formed, a homogenous time resolved fluorescent (HTRF) detecting of PGE2 has been performed using a commercially available kit from Cisbio according to the manufactures recommendation. […] Briefly, the diluted samples are mixed with 5 μl PGE2-d2 conjungate and 5 μl anti-PGE2 cryptate conjungate. After an incubation period of the plates over night, the fluorescence is measured by the use of an appropriate microplate reader.
The quantification plate contains also wells with different concentrations of PGE2 as calibration curve for the calculation of the PGE2 concentrations from the HTRF ratio values.
From all mPGES enzyme assay the background is subtracted and the IC50 is calculated over a nonlinear regression with conventional software.

Assay [2] concerns the target T1, mPGES-1. The experiment in a line: A549 cell-based assay (PGE2 formation, IL-1β stimulated, 50% human serum). To be noted: A549 cells, IL-1β 5 ng/ml, read-out: mPGES-1 inhibitory effect in the cell assay, IC50. The procedure: Although the enzymatic assay is a high throughput assay the disadvantage is that it uses a recombinant protein which is not in its natural environment. Accordingly a cellular assay was established in which a cell line of human origin (A549) expressing the mPGES-1 protein was used. In addition in order to mimic the situation in humans in which compounds can be bound to plasma proteins 50% human serum is added in the assay.
Cells were detached using Trypsin-EDTA. A549 cells were seeded in a 384-well collagene plate at a density of 7000 cells/well (50 μl) in F-12 medium containing 1% Penicillin-Streptomycin and 50% human serum. The cells were allowed to attach for 3-4 h. […] The total volume is 100 μl.
Concentrations of PGE2 in the cell free medium (10 μl) were measured using a commercially available HTRF kit from Cisbio (as described above). The PGE2 formation in the absence of test compound was taken as 100%.
IC50 values were derived from at 6-8 point titrations using conventional software.

T1 sequence (O14684 whole entry): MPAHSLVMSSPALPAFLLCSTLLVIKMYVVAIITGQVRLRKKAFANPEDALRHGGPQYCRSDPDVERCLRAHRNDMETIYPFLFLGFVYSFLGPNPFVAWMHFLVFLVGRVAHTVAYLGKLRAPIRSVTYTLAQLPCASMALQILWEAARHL

On to `Cn1c(Nc2c(F)ccc(CNC(=O)C(C)(C)C)c2F)nc2cc(C(=O)Nc3ccc(Br)cc3)c(F)cc21` [Example 9], for which the pIC50 at mPGES-1 [1] was 8.40; at mPGES-1 [2] it was 7.10.
For the molecule `Cn1c(Nc2c(F)ccc(CNC(=O)C(C)(C)C)c2F)nc2cc(C(=O)N[C@H]3CC[C@H](C(F)(F)F)CC3)c(F)cc21` [Example 10], the pIC50 on mPGES-1 [1] is 8.15; at mPGES-1 [2], 8.40.
On to `CC(C)(C)C(=O)NCc1ccc(Cl)c(Nc2nc3cc(C(=O)N[C@H]4CC[C@H](C(F)(F)F)CC4)c(F)cc3[nH]2)c1Cl` [Example 12, N-(trans-4-Trifluoromethyl-cyclohex-1-yl)-2-{2,6-dichloro-3-[(2,2-dimethyl-propionylamino)-methyl]-phenylamino}-6-fluoro-1H-benzimidazole-5-carboxylic acid amide], for which the results for the pIC50 at mPGES-1 [1] and on mPGES-1 [2] were 8.40 and 8.15, respectively.
In the case of `Cn1c(Nc2c(Cl)ccc(CNC(=O)OC(C)(C)C)c2Cl)nc2cc(C(=O)N[C@H]3CC[C@H](C(F)(F)F)CC3)c(OCC(F)F)cc21` [Example 13, N-(trans-4-Trifluoromethyl-cyclohex-1-yl)-2-{2,6-dichloro-3-[(tert-butoxy-carbonylamino)-methyl]-phenylamino}-6-(2,2-difluoroethoxy)-1-methyl-1H-benzimidazole-5-carboxylic acid amide], the negative-log IC50 (pIC50) was 8.52 on mPGES-1 [1] and 7.55 at mPGES-1 [2].
With `Cc1ccc(CNC(=O)C(C)(C)C)c(C)c1Nc1nc2cc(C(=O)N[C@H]3CC[C@H](C(F)(F)F)CC3)c(OCC(F)F)cc2n1C` [Example 14, N-(trans-4-Trifluoromethyl-cyclohex-1-yl)-2-{2,6-dimethyl-3-[(2,2-dimethyl-propionylamino)-methyl]-phenylamino}-6-(2,2-difluoroethoxy)-1-methyl-1H-benzimidazole-5-carboxylic acid amide], the pIC50 on mPGES-1 [1] was 9.00; at mPGES-1 [2], 8.30.
`Cn1c(Nc2c(Cl)ccc(CNC(=O)OC(C)(C)C)c2Cl)nc2cc(C(=O)Nc3ccc(F)c(Cl)c3)c(OCC(F)F)cc21` [Example 15]: the pIC50 at mPGES-1 [1] was 8.52; at mPGES-1 [2], 7.96.
As for `Cn1c(Nc2c(Cl)ccc(CNC(=O)OC(C)(C)C)c2Cl)nc2cc(C(=O)NCC(F)(F)F)c(OCC(F)F)cc21` [Example 16], the results for the pIC50 at mPGES-1 [1] and on mPGES-1 [2] were 8.30 and 6.97, respectively.
`Cn1c(Nc2c(Cl)ccc(CNC(=O)C(C)(C)C)c2Cl)nc2cc(C(=O)Nc3cccc(Cl)c3)c(F)cc21` [Example 18]: the pIC50 on mPGES-1 [1] is 9.00; at mPGES-1 [2], 8.40.
On the same counts, the results for `Cn1c(Nc2c(Cl)ccc(CNC(=O)C(C)(C)C)c2Cl)nc2cc(C(=O)Nc3ccc(Cl)c(F)c3)c(F)cc21` [Example 19] are 9.00 and 8.70.
In the case of `Cn1c(Nc2c(Cl)ccc(CNC(=O)C(C)(C)C)c2Cl)nc2cc(C(=O)NC3CC(F)(F)C3)c(F)cc21` [Example 20], the pIC50 is 8.52 at mPGES-1 [1] and 7.85 at mPGES-1 [2].
As to `Cn1c(Nc2c(Cl)ccc(CNC(=O)C(C)(C)C)c2Cl)nc2cc(C(=O)NCC(F)(F)F)c(F)cc21` [Example 21], the pIC50 was 8.52 at mPGES-1 [1] and 7.44 on mPGES-1 [2].
For `Cn1c(Nc2c(Cl)ccc(CNC(=O)C(C)(C)C)c2Cl)nc2cc(C(=O)Nc3cc(Cl)ccc3Cl)c(F)cc21` [Example 22], in that order: 8.70 and 9.00.
For the molecule `Cn1c(Nc2c(Cl)ccc(CNC(=O)C(C)(C)C)c2Cl)nc2cc(C(=O)Nc3cc(F)cc(Cl)c3)c(F)cc21` [Example 23], the negative logarithm of the IC50 (pIC50) was 9.00 on mPGES-1 [1] and greater than 9.00 on mPGES-1 [2].
As for `Cn1c(Nc2c(F)ccc(CNC(=O)C(C)(C)C)c2F)nc2cc(C(=O)N[C@H]3CC[C@H](C(F)(F)F)CC3)c(OCC(F)F)cc21` [Example 25], the values for the pIC50 at mPGES-1 [1] and on mPGES-1 [2] were 8.70 and 8.05, respectively.
As for `Cn1c(Nc2c(F)ccc(CNC(=O)C(C)(C)C)c2F)nc2cc(C(=O)Nc3ccc(F)c(Cl)c3)c(OCC(F)F)cc21` [Example 26], the negative logarithm of the IC50 (pIC50) was 8.70 on mPGES-1 [1] and 7.96 at mPGES-1 [2].
In the case of `Cn1c(Nc2c(F)ccc(CNC(=O)C(C)(C)C)c2F)nc2cc(C(=O)NCC(F)(F)F)c(OCC(F)F)cc21` [Example 27], the pIC50 on mPGES-1 [1] is 8.40; on mPGES-1 [2], 6.91.
As to `Cn1c(Nc2c(Cl)ccc(CNC(=O)C(C)(C)C)c2Cl)nc2cc(C(=O)Nc3ccc(F)c(Cl)c3)c(OCC(F)F)cc21` [Example 29], the pIC50 is 8.40 on mPGES-1 [1] and greater than 9.00 on mPGES-1 [2].
As to `Cn1c(Nc2c(Cl)ccc(CNC(=O)C(C)(C)C)c2Cl)nc2cc(C(=O)Nc3cccc(Cl)c3)c(OCC(F)F)cc21` [Example 30], the pIC50 at mPGES-1 [1] is 8.40; at mPGES-1 [2], greater than 9.00.
For `Cn1c(Nc2c(Cl)ccc(CNC(=O)C(C)(C)C)c2Cl)nc2cc(C(=O)Nc3cccc(F)c3)c(OCC(F)F)cc21` [Example 31], the pIC50 on mPGES-1 [1] is 8.52; on mPGES-1 [2] it was 9.00.
`Cn1c(Nc2c(Cl)ccc(CNC(=O)C(C)(C)C)c2Cl)nc2cc(C(=O)NC3CCC3)c(OCC(F)F)cc21` [Example 32]: the pIC50 was 8.52 at mPGES-1 [1] and 9.00 on mPGES-1 [2].
On to `Cn1c(Nc2c(Cl)ccc(CNC(=O)C(C)(C)C)c2Cl)nc2cc(C(=O)Nc3nc4ccc(Cl)cc4s3)c(OCC(F)F)cc21` [Example 34], for which the pIC50 at mPGES-1 [1] is 8.40; at mPGES-1 [2], 9.00.
Take `Cn1c(Nc2c(Cl)ccc(CNC(=O)C(C)(C)C)c2Cl)nc2cc(C(=O)NCc3ccccc3C(F)(F)F)c(OCC(F)F)cc21` [Example 35]: the negative logarithm of the IC50 (pIC50) on mPGES-1 [1] is 8.40; at mPGES-1 [2] it was greater than 9.00.
Take `Cn1c(Nc2c(Cl)ccc(CNC(=O)C(C)(C)C)c2Cl)nc2cc(C(=O)NCc3ccc(F)cc3C(F)(F)F)c(OCC(F)F)cc21` [Example 36]: the figures for the pIC50 at mPGES-1 [1] and on mPGES-1 [2] were 8.40 and greater than 9.00, respectively.
In the case of `Cn1c(Nc2c(Cl)ccc(CNC(=O)C(C)(C)C)c2Cl)nc2cc(C(=O)NC[C@@H]3CCCO3)c(OCC(F)F)cc21` [Example 37], the results for the pIC50 at mPGES-1 [1] and at mPGES-1 [2] were 8.30 and 8.05, respectively.
With `Cn1c(Nc2c(Cl)ccc(CNC(=O)C(C)(C)C)c2Cl)nc2cc(C(=O)NCC(F)(F)C(F)(F)F)c(OCC(F)F)cc21` [Example 38], the figures for the pIC50 on mPGES-1 [1] and at mPGES-1 [2] were 8.52 and greater than 9.00, respectively.
Consider `CC(NC(=O)c1cc2nc(Nc3c(Cl)ccc(CNC(=O)C(C)(C)C)c3Cl)n(C)c2cc1OCC(F)F)C(F)(F)F` (stereo not shown) [Example 39], for which the figures for the negative-log IC50 (pIC50) on mPGES-1 [1] and on mPGES-1 [2] were 8.40 and greater than 9.00, respectively.
Turning to `Cn1c(Nc2c(Cl)ccc(CNC(=O)C(C)(C)C)c2Cl)nc2cc(C(=O)Nc3cc(F)cc(Cl)c3)c(OCC(F)F)cc21` [Example 40], the results for the negative logarithm of the IC50 (pIC50) on mPGES-1 [1] and on mPGES-1 [2] were 8.40 and greater than 9.00, respectively.
As to `Cn1c(Nc2c(Cl)ccc(CNC(=O)C(C)(C)C)c2Cl)nc2cc(C(=O)Nc3ncc(Cl)s3)c(OCC(F)F)cc21` [Example 41], the pIC50 at mPGES-1 [1] is 8.40; on mPGES-1 [2], 9.00.
On the same counts, the results for `Cn1c(Nc2c(Cl)ccc(CNC(=O)C(C)(C)C)c2Cl)nc2cc(C(=O)NCc3ncccc3C(F)(F)F)c(OCC(F)F)cc21` [Example 42] are 8.40 and greater than 9.00.

What is called pIC50 is −log10 of the IC50, conventionally taken in molar units.
